In USRE50189E1, “Long term treatment of HIV-infection with TMC278” (Janssen Sciences Ireland Unlimited Company, priority 2006, dated 2024):

What was measured:
[1] = plasma kinetics of TMC278 in the beagle dog after single intramuscular administration of aqueous 30% DMA/50% PEG400 solution; type: in vivo; details: single IM 2.5 mg/kg
Method: The study was performed in order to study the plasma kinetics and the absolute bioavailability of TMC278 in the beagle dog after single intramuscular administration (IM) of an aqueous 30% dimethylacetamide (DMA)/50% polyethylene glycol 400 (PEG400) solution of TMC278 at 2.5 mg/kg. The dogs were dosed IM.
Two male beagle dogs (dog No. 16924 and 16854), approximately 3 years old and weighing between 11 and 12 kg at the start of the experimental phase, were used in the present experiment. The dogs were dosed intramuscularly at 0.1 ml/kg body weight by injecting the formulation in the left (dog No. 16924) or right (dog No. 16854) m. biceps femoris. […]
Blood samples (4 ml on EDTA) were taken from a jugular vein from the dogs at 0 (=predose), 0.5, 1, 2, 4, 8, 24, 32, 48, 72, 96, 144, 192, 240 and 312 h after dose administration. […] These samples were analogously processed and analysed.
On day 232 post-dose, a biopsy was performed (dog No. 16924 only) on the iliac lymph node (at the side of injection), on a muscle from the non-injected hind leg and on a muscle at the side of injection after ultrasonographic examination. […] This sample was processed and analysed similarly to the other blood samples.
The concentration of TMC278 in dog plasma was determined by a qualified research LC-MS/MS method after solid phase extraction (SPE). […]

[2] = test system: wild type HIV and mutated variants; details: cited from earlier work

SMILES: Cc1cc(C=CC#N)cc(C)c1Nc1ccnc(Nc2ccc(C#N)cc2)n1 [TMC278, 4-[[4-[[4-(2-cyanoethenyl)-2,6-dimethylphenyl]amino]-2-pyrimidinyl]amino]benzonitrile]
- t1/2,24-72h ([1]; mean (n=2)): 63.1 h
- course of plasma levels after 72 h post-dose ([1]; 72 h up to 312 h post-dose): remained fairly constant or slightly increased
- activity against wild type HIV and many of its mutated variants [2]: pronounced activity
